The target of one assay is 9H4 IgG. Briefly: SPR competition binding assay, mAb 9H4. Conditions: SPR competition assay (Biacore T200); 3D7 MSP2 immobilised on CM5 chip; eight three-fold dilutions of peptide from 10 µM with 50 nM 9H4 IgG; alanine scan of 16-residue MSP2_207–222; read-out: Kd against 9H4 IgG. The arrangement: species or system mouse. Here is the method: (§1) Affinities for peptide epitopes and dimer peptides to 4D11 and 9H4 IgG were measured by surface plasmon resonance (SPR) (Biacore T200, GE Healthcare, Parramatta, Australia) using a competition assay method developed previously. First, 3D7 MSP2 was immobilised on a CM5 chip. To determine binding, eight three-fold dilutions of peptide, from 10 µM stock were added with 50 nM 4D11/9H4 IgG to compete with the immobilised antigen. A standard curve was established by flowing eight two-fold dilutions of 4D11 or 9H4 IgG from a 100 nM stock solution.
In our previous work, the minimal epitope and key residues involved in 4D11 binding were defined as the 8-residue peptide 3D7-MSP2_215–222, with Lys216, Glu217 and Asn218 crucial for binding. To characterise the epitope of 9H4 and compare it with that of 4D11, the same alanine-scan peptides were used to probe 9H4 binding (Figure 1A,B). Affinities for 9H4 binding were measured by SPR, using a competition binding assay described previously.
On the technique in general: SPR reads the build-up and loss of mass on a sensor chip optically.

The target in the next assay is 4D11 IgG. Briefly: SPR competition binding assay, mAb 4D11. The arrangement: species or system mouse. Conditions: read-out: Kd against 4D11 IgG. Here is the method: as §1
Following the MD simulations, each peptide was synthesised by standard Fmoc synthesis. Orthogonal protection of cysteines was used to ensure that the desired disulfide bond was formed, leaving a single free cysteine for conjugation to an appropriate carrier for immunisation. […] Consequently, disulfide bond formation and cyclisation coupling were performed in solution. To determine if the additions incorporated into the dimer sequence hindered binding to 4D11, SPR was used to measure their binding affinity to the mAb (Table 2). […] For immunisations, the commonly used carrier protein, keyhole limpet hemocyanin (KLH) was chosen. As conjugation to KLH required a free thiol, an additional cysteine residue was included in all of the peptides (Figure 2).

Where [1] appears, read: SPR competition assay (Biacore T200), 3D7 MSP2 immobilised on CM5 chip, eight three-fold dilutions of peptide from 10 µM with 50 nM 4D11 IgG, alanine scan of 16-residue MSP2_207–222.
[2] abbreviates: SPR competition binding assay, peptides for KLH conjugation (Table 2), 3D7 MSP2 on CM5 chip, 50 nM 4D11 IgG.

SMILES strings stand for the structures. Read-outs that look alike come from different tables or passages of the source. Where a SMILES comes first, the peptide text is derived from it. Bridges are numbered along the chain shown (N, C = ends).

As for `CC(=O)N[C@@H](CO)C(=O)N[C@@H](CCC(N)=O)C(=O)N[C@@H](CCCCN)C(=O)N[C@@H](CCC(=O)O)C(=O)N[C@H]1CSSC[C@@H](C(=O)NCC(=O)N[C@@H](C)C(=O)N[C@@H](C)C(N)=O)NC(=O)[C@H](CC(N)=O)NC(=O)[C@H](CCC(=O)O)NC(=O)[C@H](CCCCN)NC(=O)[C@H](CC(N)=O)NC(=O)CNC(=O)[C@H](CC(=O)O)NC(=O)[C@H]([C@@H](C)O)NC1=O` [3D7-MSP2_207–222 (WT)] (Ac-SQKECTDGNKENCGAA-NH2; disulfide 5-13), the results for the Kd at 9H4 IgG and at 4D11 IgG (setting [1]) were 1500 nM and 900 nM, respectively.

As for `C[C@@H]1NC(=O)CNC(=O)[C@@H]2CSSC[C@H](NC(=O)[C@H](CC(N)=O)NC(=O)[C@H](CCC(=O)O)NC(=O)[C@H](CCCCN)NC(=O)[C@H](CC(N)=O)NC(=O)CNC(=O)CNC(=O)[C@H](C)NC1=O)C(=O)NCC(=O)N[C@@H](C)C(=O)N[C@@H](C)C(=O)N[C@@H](CS)C(=O)NCC(=O)N[C@@H](CC(N)=O)C(=O)N[C@@H](CCCCN)C(=O)N[C@@H](CCC(=O)O)C(=O)N[C@@H](CC(N)=O)C(=O)N2` [Peptide C2] (cyclo(AACGNKENCGAAGGNKENCG); disulfide 9-19), the Kd at 4D11 IgG (setting [2]) amounted to 680 nM.

In the case of `C[C@@H]1NC(=O)CNC(=O)[C@@H]2CSSC[C@H](NC(=O)[C@H](CC(N)=O)NC(=O)[C@H](CCC(=O)O)NC(=O)[C@H](CCCCN)NC(=O)[C@H](CC(N)=O)NC(=O)CNC(=O)[C@H](CS)NC(=O)CNC(=O)[C@H](C)NC1=O)C(=O)NCC(=O)N[C@@H](C)C(=O)N[C@@H](C)C(=O)NCC(=O)NCC(=O)NCC(=O)N[C@@H](CC(N)=O)C(=O)N[C@@H](CCCCN)C(=O)N[C@@H](CCC(=O)O)C(=O)N[C@@H](CC(N)=O)C(=O)N2` [Peptide C3] (cyclo(AAGCGNKENCGAAGGGNKENCG); disulfide 10-21), the Kd at 4D11 IgG (setting [2]) was 1040 nM.

With `CC(=O)N[C@@H](CO)C(=O)N[C@@H](CCC(N)=O)C(=O)N[C@@H](CCCCN)C(=O)N[C@@H](CCC(=O)O)C(=O)N[C@H]1CSSC[C@@H](C(=O)NCC(=O)N[C@@H](C)C(=O)N[C@@H](C)C(N)=O)NC(=O)[C@H](CC(N)=O)NC(=O)[C@H](CCC(=O)O)NC(=O)[C@H](CCCCN)NC(=O)[C@H](CC(N)=O)NC(=O)CNC(=O)[C@H](C)NC(=O)[C@H]([C@@H](C)O)NC1=O` [Peptide D213A] (Ac-SQKECTAGNKENCGAA-NH2; disulfide 5-13), on 4D11 IgG (setting [1]), the Kd came to 500 nM.

On to `CC(=O)N[C@@H](CO)C(=O)N[C@@H](CCC(N)=O)C(=O)N[C@@H](CCCCN)C(=O)N[C@@H](C)C(=O)N[C@H]1CSSC[C@@H](C(=O)NCC(=O)N[C@@H](C)C(=O)N[C@@H](C)C(N)=O)NC(=O)[C@H](CC(N)=O)NC(=O)[C@H](CCC(=O)O)NC(=O)[C@H](CCCCN)NC(=O)[C@H](CC(N)=O)NC(=O)CNC(=O)[C@H](CC(=O)O)NC(=O)[C@H]([C@@H](C)O)NC1=O` [Peptide E210A] (Ac-SQKACTDGNKENCGAA-NH2; disulfide 5-13), for which the figures for the dissociation constant (Kd) on 9H4 IgG and at 4D11 IgG (setting [1]) were 1400 nM and 500 nM, respectively.

`CC(=O)N[C@@H](CO)C(=O)N[C@@H](CCC(N)=O)C(=O)N[C@@H](CCCCN)C(=O)N[C@@H](CCC(=O)O)C(=O)N[C@H]1CSSC[C@@H](C(=O)NCC(=O)N[C@@H](C)C(=O)N[C@@H](C)C(N)=O)NC(=O)[C@H](CC(N)=O)NC(=O)[C@H](C)NC(=O)[C@H](CCCCN)NC(=O)[C@H](CC(N)=O)NC(=O)CNC(=O)[C@H](CC(=O)O)NC(=O)[C@H]([C@@H](C)O)NC1=O` [Peptide E217A] (Ac-SQKECTDGNKANCGAA-NH2; disulfide 5-13): the dissociation constant (Kd) on 9H4 IgG turned out to be 90 nM; at 4D11 IgG (setting [1]) it was 219000 nM.

On to `CC(=O)N[C@@H](CO)C(=O)N[C@@H](CCC(N)=O)C(=O)N[C@@H](CCCCN)C(=O)N[C@@H](CCC(=O)O)C(=O)N[C@H]1CSSC[C@@H](C(=O)NCC(=O)N[C@@H](C)C(=O)N[C@@H](C)C(N)=O)NC(=O)[C@H](CC(N)=O)NC(=O)[C@H](CCC(=O)O)NC(=O)[C@H](CCCCN)NC(=O)[C@H](CC(N)=O)NC(=O)[C@H](C)NC(=O)[C@H](CC(=O)O)NC(=O)[C@H]([C@@H](C)O)NC1=O` [Peptide G214A] (Ac-SQKECTDANKENCGAA-NH2; disulfide 5-13), for which the results for the Kd on 9H4 IgG and at 4D11 IgG (setting [1]) were 70 nM and 400 nM, respectively.

With `CC(=O)N[C@@H](CO)C(=O)N[C@@H](CCC(N)=O)C(=O)N[C@@H](CCCCN)C(=O)N[C@@H](CCC(=O)O)C(=O)N[C@H]1CSSC[C@@H](C(=O)N[C@@H](C)C(=O)N[C@@H](C)C(=O)N[C@@H](C)C(N)=O)NC(=O)[C@H](CC(N)=O)NC(=O)[C@H](CCC(=O)O)NC(=O)[C@H](CCCCN)NC(=O)[C@H](CC(N)=O)NC(=O)CNC(=O)[C@H](CC(=O)O)NC(=O)[C@H]([C@@H](C)O)NC1=O` [Peptide G220A] (Ac-SQKECTDGNKENCAAA-NH2; disulfide 5-13), the Kd on 9H4 IgG came to 2900 nM; on 4D11 IgG (setting [1]), 42200 nM.

Turning to `CC(=O)N[C@@H](CO)C(=O)N[C@@H](CCC(N)=O)C(=O)N[C@@H](CCCCN)C(=O)N[C@@H](CCC(=O)O)C(=O)N[C@H]1CSSC[C@@H](C(=O)NCC(=O)N[C@@H](C)C(=O)N[C@@H](C)C(N)=O)NC(=O)[C@H](CC(N)=O)NC(=O)[C@H](CCC(=O)O)NC(=O)[C@H](C)NC(=O)[C@H](CC(N)=O)NC(=O)CNC(=O)[C@H](CC(=O)O)NC(=O)[C@H]([C@@H](C)O)NC1=O` [Peptide K216A] (Ac-SQKECTDGNAENCGAA-NH2; disulfide 5-13), the dissociation constant (Kd) was determined as 90 nM at 9H4 IgG and 21000 nM at 4D11 IgG (setting [1]).

As for `CC(=O)N[C@@H](CC(N)=O)C(=O)N[C@@H](CCCCN)C(=O)N[C@@H](CCC(=O)O)C(=O)N[C@@H](CC(N)=O)C(=O)N[C@H]1CSSC[C@@H](C(=O)NCC(=O)N[C@@H](C)C(=O)N[C@@H](C)C(=O)N[C@@H](CS)C(N)=O)NC(=O)[C@H](CC(N)=O)NC(=O)[C@H](CCC(=O)O)NC(=O)[C@H](CCCCN)NC(=O)[C@H](CC(N)=O)NC(=O)CNC(=O)CNC(=O)[C@H](C)NC(=O)[C@H](C)NC(=O)CNC1=O` [Peptide L2] (Ac-NKENCGAAGGNKENCGAAC-NH2; disulfide 5-15), the equilibrium dissociation constant (Kd) on 4D11 IgG (setting [2]) amounted to 670 nM.

On to `CC(=O)N[C@@H](CC(N)=O)C(=O)N[C@@H](CCCCN)C(=O)N[C@@H](CCC(=O)O)C(=O)N[C@@H](CC(N)=O)C(=O)N[C@H]1CSSC[C@@H](C(=O)NCC(=O)N[C@@H](C)C(=O)N[C@@H](C)C(=O)N[C@@H](CS)C(N)=O)NC(=O)[C@H](CC(N)=O)NC(=O)[C@H](CCC(=O)O)NC(=O)[C@H](CCCCN)NC(=O)[C@H](CC(N)=O)NC(=O)CNC(=O)CNC(=O)CNC(=O)[C@H](C)NC(=O)[C@H](C)NC(=O)CNC1=O` [Peptide L3] (Ac-NKENCGAAGGGNKENCGAAC-NH2; disulfide 5-16), for which the Kd on 4D11 IgG (setting [2]) turned out to be 580 nM.

As to `CC(=O)N[C@@H](CO)C(=O)N[C@@H](CCC(N)=O)C(=O)N[C@@H](CCCCN)C(=O)N[C@@H](CCC(=O)O)C(=O)N[C@H]1CSSC[C@@H](C(=O)NCC(=O)N[C@@H](C)C(=O)N[C@@H](C)C(N)=O)NC(=O)[C@H](CC(N)=O)NC(=O)[C@H](CCC(=O)O)NC(=O)[C@H](CCCCN)NC(=O)[C@H](C)NC(=O)CNC(=O)[C@H](CC(=O)O)NC(=O)[C@H]([C@@H](C)O)NC1=O` [Peptide N215A] (Ac-SQKECTDGAKENCGAA-NH2; disulfide 5-13), the Kd on 9H4 IgG turned out to be 100 nM; on 4D11 IgG (setting [1]), 500 nM.

With `CC(=O)N[C@@H](CO)C(=O)N[C@@H](CCC(N)=O)C(=O)N[C@@H](CCCCN)C(=O)N[C@@H](CCC(=O)O)C(=O)N[C@H]1CSSC[C@@H](C(=O)NCC(=O)N[C@@H](C)C(=O)N[C@@H](C)C(N)=O)NC(=O)[C@H](C)NC(=O)[C@H](CCC(=O)O)NC(=O)[C@H](CCCCN)NC(=O)[C@H](CC(N)=O)NC(=O)CNC(=O)[C@H](CC(=O)O)NC(=O)[C@H]([C@@H](C)O)NC1=O` [Peptide N218A] (Ac-SQKECTDGNKEACGAA-NH2; disulfide 5-13), the Kd on 9H4 IgG came to 2700 nM; at 4D11 IgG (setting [1]) it was 6000 nM.

With `CC(=O)N[C@@H](CO)C(=O)N[C@@H](C)C(=O)N[C@@H](CCCCN)C(=O)N[C@@H](CCC(=O)O)C(=O)N[C@H]1CSSC[C@@H](C(=O)NCC(=O)N[C@@H](C)C(=O)N[C@@H](C)C(N)=O)NC(=O)[C@H](CC(N)=O)NC(=O)[C@H](CCC(=O)O)NC(=O)[C@H](CCCCN)NC(=O)[C@H](CC(N)=O)NC(=O)CNC(=O)[C@H](CC(=O)O)NC(=O)[C@H]([C@@H](C)O)NC1=O` [Peptide Q208A] (Ac-SAKECTDGNKENCGAA-NH2; disulfide 5-13), the results for the equilibrium dissociation constant (Kd) at 9H4 IgG and at 4D11 IgG (setting [1]) were 2900 nM and 400 nM, respectively.

Take `CC(=O)N[C@@H](C)C(=O)N[C@@H](CCC(N)=O)C(=O)N[C@@H](CCCCN)C(=O)N[C@@H](CCC(=O)O)C(=O)N[C@H]1CSSC[C@@H](C(=O)NCC(=O)N[C@@H](C)C(=O)N[C@@H](C)C(N)=O)NC(=O)[C@H](CC(N)=O)NC(=O)[C@H](CCC(=O)O)NC(=O)[C@H](CCCCN)NC(=O)[C@H](CC(N)=O)NC(=O)CNC(=O)[C@H](CC(=O)O)NC(=O)[C@H]([C@@H](C)O)NC1=O` [Peptide S207A] (Ac-AQKECTDGNKENCGAA-NH2; disulfide 5-13): the dissociation constant Kd was 2900 nM on 9H4 IgG and 500 nM on 4D11 IgG (setting [1]).

One may read the Kd as the constant that tells how readily two partners part at equilibrium.

Source of the values: paper PMC8402609, “Guiding the Immune Response to a Conserved Epitope in MSP2, an Intrinsically Disordered Malaria Vaccine Candidate” (Vaccines, 2021).
